Assay results published in publication PMC9866191, “Novel 9-Benzylaminoacridine Derivatives as Dual Inhibitors of Phosphodiesterase 5 and Topoisomerase II for the Treatment of Colon Cancer” (Molecules, 2023).

Legend:
CCD-966SK = test: MTT cell proliferation assay, CCD-966SK; settings: CCD966SK skin fibroblast; 10 µM; 72 h MTT
PDE5A = target: T1, PDE5A (Homo sapiens, UniProt O76074); test: Phosphodiesterase 5 HTRF cGMP assay; type: biochemical; settings: for IC50: means ± S.D. (n = 4), read-out: PDE5 IC50; for inhibition at 10 µM: read-out: PDE5 % Inhibition at 10 μM
T1 construct: purchased BPS Bioscience, San Diego, CA, USA
Method: All the synthesized acridine derivatives were tested for their in vitro ability to inhibit PDE5A at a screening dose of 10 µM.
The enzyme activities of phosphodiesterase 5 (PDE5) were measured using an HTRF cGMP assay kit (Cisbio, Codolet, France). […] Afterward, the HTRF reagent (cGMP-d2 and anti-cGMP-cryptate) was added for 1 h at 25 °C, and PDE activity was assayed on an HTRF reader (Tecan Infinite F200 Pro).

SN12C = test: NCI-60 one-dose screen; type: cell-based; settings: Homo sapiens, Renal Cancer panel, single dose 10^−5 M, read-out: Growth inhibition %
Method: (§1) The newly synthesized compounds were screened for their in vitro anticancer activity at the Developmental Therapeutic Program (DTP) of the National Cancer Institute (NCI). The screening involved a panel of 60 human tumor cell lines consisting of 9 tissue types to screen for potential anti-cancer agents. The primary screening of submitted compounds was performed by testing a single dose (10^−5 M) in the full NCI-60 panel. The detailed % inhibition by the tested compounds against the 60 cell lines is shown in Tables S1–S3 in the Supporting Information.

SNB-19 = test: NCI-60 one-dose screen; type: cell-based; settings: Homo sapiens; SNB-19, CNS Cancer panel; single dose 10^−5 M; read-out: Growth inhibition %
Method: as §1

HCT-116 = test: NCI-60 one-dose screen; type: cell-based; settings: Homo sapiens, read-out: Growth inhibition %
Method: as §1

TK-10 = test: NCI-60 one-dose screen; type: cell-based; settings: Homo sapiens; TK-10, Renal Cancer panel; single dose 10^−5 M; read-out: Growth inhibition %
Method: as §1

UACC-62 = test: NCI-60 one-dose screen; type: cell-based; settings: Homo sapiens; UACC-62, Melanoma panel; single dose 10^−5 M; read-out: Growth inhibition %
Method: as §1

UACC-257 = test: NCI-60 one-dose screen; type: cell-based; settings: Homo sapiens; UACC-257, Melanoma panel; single dose 10^−5 M; read-out: Growth inhibition %
Method: as §1

MDA-MB-468 = test: NCI-60 one-dose screen; type: cell-based; settings: Homo sapiens; MDA-MB-468, Breast Cancer panel; single dose 10^−5 M; read-out: Growth inhibition %
Method: as §1

RXF 393 = test: NCI-60 one-dose screen; type: cell-based; settings: Homo sapiens; RXF 393, Renal Cancer panel; single dose 10^−5 M; read-out: Growth inhibition %
Method: as §1

MALME-3M = test: NCI-60 one-dose screen; type: cell-based; settings: Homo sapiens, Melanoma panel, single dose 10^−5 M, read-out: Growth inhibition %
Method: as §1

NCI-H226 = test: NCI-60 one-dose screen; type: cell-based; settings: Homo sapiens; NCI-H226, Non-small cell lung panel; single dose 10^−5 M; read-out: Growth inhibition %
Method: as §1

UO-31 = test: NCI-60 one-dose screen; type: cell-based; settings: Homo sapiens; UO-31, Renal Cancer panel; single dose 10^−5 M; read-out: Growth inhibition %
Method: as §1

OVCAR-3 = test: NCI-60 one-dose screen; type: cell-based; settings: Homo sapiens; OVCAR-3, Ovarian Cancer panel; single dose 10^−5 M; read-out: Growth inhibition %
Method: as §1

HOP-62 = test: NCI-60 one-dose screen; type: cell-based; settings: Homo sapiens; HOP-62, Non-small cell lung panel; single dose 10^−5 M; read-out: Growth inhibition %
Method: as §1

COLO 205 = test: NCI-60 one-dose screen; type: cell-based; settings: Homo sapiens; COLO 205, Colon Cancer panel; single dose 10^−5 M; read-out: Growth inhibition %
Method: as §1

SF-539 = test: NCI-60 one-dose screen; type: cell-based; settings: Homo sapiens; SF-539, CNS Cancer panel; single dose 10^−5 M; read-out: Growth inhibition %
Method: as §1

HS 578T = test: NCI-60 one-dose screen; type: cell-based; settings: Homo sapiens, Breast Cancer panel, single dose 10^−5 M, read-out: Growth inhibition %
Method: as §1

KM12 = test: NCI-60 one-dose screen; type: cell-based; settings: Homo sapiens; KM12, Colon Cancer panel; single dose 10^−5 M; read-out: Growth inhibition %
Method: as §1

K-562 = test: NCI-60 one-dose screen; type: cell-based; settings: Homo sapiens, K562; K-562, Leukemia panel; single dose 10^−5 M; read-out: Growth inhibition %
Method: as §1

OVCAR-8 = test: NCI-60 one-dose screen; type: cell-based; settings: Homo sapiens; OVCAR-8, Ovarian Cancer panel; single dose 10^−5 M; read-out: Growth inhibition %
Method: as §1

HCC-2998 = test: NCI-60 one-dose screen; type: cell-based; settings: Homo sapiens; HCC-2998, Colon Cancer panel; single dose 10^−5 M; read-out: Growth inhibition %
Method: as §1

SK-MEL-2 = test: NCI-60 one-dose screen; type: cell-based; settings: Homo sapiens; SK-MEL-2, Melanoma panel; single dose 10^−5 M; read-out: Growth inhibition %
Method: as §1

U251 = test: NCI-60 one-dose screen; type: cell-based; settings: Homo sapiens, U-251; U251, CNS Cancer panel; single dose 10^−5 M; read-out: Growth inhibition %
Method: as §1

RPMI-8226 = test: NCI-60 one-dose screen; type: cell-based; settings: Homo sapiens; RPMI-8226, Leukemia panel; single dose 10^−5 M; read-out: Growth inhibition %
Method: as §1

NCI-H322M = test: NCI-60 one-dose screen; type: cell-based; settings: Homo sapiens, Non-small cell lung panel, single dose 10^−5 M, read-out: Growth inhibition %
Method: as §1

SW-620 = test: NCI-60 one-dose screen; type: cell-based; settings: Homo sapiens; SW-620, Colon Cancer panel; single dose 10^−5 M; read-out: Growth inhibition %
Method: as §1

MDA-MB-231/ATCC = test: NCI-60 one-dose screen; type: cell-based; settings: Homo sapiens, Breast Cancer panel, single dose 10^−5 M, read-out: Growth inhibition %
Method: as §1

A549/ATCC = test: NCI-60 one-dose screen; type: cell-based; settings: Homo sapiens, Non-small cell lung panel, single dose 10^−5 M, read-out: Growth inhibition %
Method: as §1

LOX IMVI = test: NCI-60 one-dose screen; type: cell-based; settings: Homo sapiens, Melanoma panel, single dose 10^−5 M, read-out: Growth inhibition %

Row | Structure (SMILES) | % Inhibition at 10 µM (CCD-966SK) [%] | IC50 (PDE5A) [µM] | inhibition at 10 µM (PDE5A) [%] | inhibition at 10 µM (SN12C) [%] | inhibition at 10 µM (SNB-19) [%] | inhibition at 10 µM (HCT-116) [%] | inhibition at 10 µM (TK-10) [%] | inhibition at 10 µM (UACC-62) [%] | inhibition at 10 µM (UACC-257) [%] | inhibition at 10 µM (MDA-MB-468) [%] | inhibition at 10 µM (RXF 393) [%] | inhibition at 10 µM (MALME-3M) [%] | inhibition at 10 µM (NCI-H226) [%] | inhibition at 10 µM (UO-31) [%] | inhibition at 10 µM (OVCAR-3) [%] | inhibition at 10 µM (HOP-62) [%] | inhibition at 10 µM (COLO 205) [%] | inhibition at 10 µM (SF-539) [%] | inhibition at 10 µM (HS 578T) [%] | inhibition at 10 µM (KM12) [%] | further results
1 | Cc1ccc(CNc2c3ccccc3nc3ccccc23)cc1 [Compound 4, Acridin-9-yl-(4-methylbenzyl)-amine] | 38.07 ± 5.90 | 4.44 ± 1.82 | 74 ± 12.4 | 75.1 | 70.3 | 88 | 64.2 | 56.6 | 60.6 | 92.8 | 89.7 | 83.8 | 58.5 | 88 | 65.8 | 56.4 | 99.7 | 81.9 | 61.5 | 76.5 | inhibition at 10 µM (K-562): 97%; inhibition at 10 µM (OVCAR-8): 78.2%; inhibition at 10 µM (HCC-2998): 103%; inhibition at 10 µM (SK-MEL-2): 57.3%; inhibition at 10 µM (U251): 74%; inhibition at 10 µM (RPMI-8226): 111%; inhibition at 10 µM (NCI-H322M): 60.2%; inhibition at 10 µM (SW-620): 79.8%; inhibition at 10 µM (MDA-MB-231/ATCC): 56.8%; inhibition at 10 µM (A549/ATCC): 74%; inhibition at 10 µM (LOX IMVI): 88.2%
2 | COc1ccccc1CNc1c2ccccc2nc2ccccc12 [Compound 5, Acridin-9-yl-(2-methoxybenzyl)-amine] | 6.65 ± 1.18 | > 10 | 45.1 ± 4.54 | 65.3 | 64.2 | 87.3 | 44.5 | 39.5 | 35.9 | 71.7 | 69.4 | 54.1 | 60.1 | 66.3 | 45.7 | 55.5 | 87.2 | 78.8 | 38 | 67.1 | inhibition at 10 µM (K-562): 89.9%; inhibition at 10 µM (OVCAR-8): 68.1%; inhibition at 10 µM (HCC-2998): 61.1%; inhibition at 10 µM (SK-MEL-2): 26.5%; inhibition at 10 µM (U251): 61.4%; inhibition at 10 µM (RPMI-8226): 91.9%; inhibition at 10 µM (NCI-H322M): 51.4%; inhibition at 10 µM (SW-620): 77.9%; inhibition at 10 µM (MDA-MB-231/ATCC): 42.4%; inhibition at 10 µM (A549/ATCC): 65.8%; inhibition at 10 µM (LOX IMVI): 81.1%
3 | COc1cccc(CNc2c3ccccc3nc3ccccc23)c1 [Compound 6, Acridin-9-yl-(3-methoxybenzyl)-amine] | 54.31 ± 0.98 | > 10 | 39.7 ± 3.2 | 62.1 | 64 | 90.1 | 48.3 | 36.5 | 45 | 86.4 | 86.2 | 56 | 51.9 | 73 | 45.2 | 53.5 | 90.4 | 80.6 | 44.4 | 64.1 | inhibition at 10 µM (K-562): 93.4%; inhibition at 10 µM (OVCAR-8): 68.1%; inhibition at 10 µM (HCC-2998): 60.7%; inhibition at 10 µM (SK-MEL-2): 32.1%; inhibition at 10 µM (U251): 61.3%; inhibition at 10 µM (RPMI-8226): 83.3%; inhibition at 10 µM (NCI-H322M): 56%; inhibition at 10 µM (SW-620): 74.5%; inhibition at 10 µM (MDA-MB-231/ATCC): 50.1%; inhibition at 10 µM (A549/ATCC): 69.8%; inhibition at 10 µM (LOX IMVI): 80.2%
4 | COc1ccc(CNc2c3ccccc3nc3ccccc23)cc1 [Compound 7, Acridin-9-yl-(4-methoxybenzyl)-amine] | 13.09 ± 2.52 | > 10 | < 0 | 67.8 | 66 | 90.5 | 50.5 | 44.2 | 47.7 | 72.9 | 72.4 | 60 | 48.6 | 77.9 | 51.9 | 46.1 | 88.4 | 72.5 | 42 | 66.8 | inhibition at 10 µM (K-562): 93%; inhibition at 10 µM (OVCAR-8): 72.3%; inhibition at 10 µM (HCC-2998): 61.4%; inhibition at 10 µM (SK-MEL-2): 39.9%; inhibition at 10 µM (U251): 63.5%; inhibition at 10 µM (RPMI-8226): 84.2%; inhibition at 10 µM (NCI-H322M): 52.9%; inhibition at 10 µM (SW-620): 74.4%; inhibition at 10 µM (MDA-MB-231/ATCC): 52.6%; inhibition at 10 µM (A549/ATCC): 71.1%; inhibition at 10 µM (LOX IMVI): 79.1%
5 | Fc1ccccc1CNc1c2ccccc2nc2ccccc12 [Compound 8, Acridin-9-yl-(2-fluorobenzyl)-amine] | 42.52 ± 2.0 | 7.16 ± 2.75 | 57.5 ± 6.43 | 60.4 | 56.1 | 86.1 | 41.8 | 38.4 | 41.2 | 78.2 | 51.2 | 55.3 | 43.6 | 72.3 | 35.9 | 47.5 | 84.9 | 68.9 | 30.9 | 57.8 | inhibition at 10 µM (K-562): 85.8%; inhibition at 10 µM (OVCAR-8): 68.9%; inhibition at 10 µM (HCC-2998): 52%; inhibition at 10 µM (SK-MEL-2): 21.8%; inhibition at 10 µM (U251): 53.1%; inhibition at 10 µM (RPMI-8226): 87.7%; inhibition at 10 µM (NCI-H322M): 49.7%; inhibition at 10 µM (SW-620): 71.5%; inhibition at 10 µM (MDA-MB-231/ATCC): 46%; inhibition at 10 µM (A549/ATCC): 65.9%; inhibition at 10 µM (LOX IMVI): 73.9%
